The target in one data set is 5-HT6 receptor. The settings on record: cited from earlier work.

The structures appear in SMILES notation.

For `COc1ccc2c(c1)c(C(O)CN1CCN(c3ccccc3OC)CC1)cn2S(=O)(=O)c1cccc2ccccc12` (centres unmarked) [4l, 1-(5-methoxy-1-(naphthalen-1-ylsulfonyl)-1H-indol-3-yl)-2-(4-(2-methoxyphenyl)piperazin-1-yl)ethan-1-ol], the melting point lay in the range of 105 to 107 °C.
Take `O=S(=O)(c1cccc2ccccc12)n1cc(C(O)CN2CCOCC2)c2cc(F)ccc21` (centres unmarked) [4f, 1-(5-fluoro-1-(naphthalen-1-ylsulfonyl)-1H-indol-3-yl)-2-morpholinoethan-1-ol]: the melting point fell in the range of 164.1 to 165.8 °C.
`COc1ccccc1N1CCN(CC(O)c2cn(S(=O)(=O)c3cccc4ccccc34)c3ccc(F)cc23)CC1` (centres unmarked) [4d, 1-(5-fluoro-1-(naphthalen-1-ylsulfonyl)-1H-indol-3-yl)-2-(4-(2-methoxyphenyl)piperazin-1-yl)ethan-1-ol] registered a melting point of 181.1 to 183.2 °C.
Same read-out and setting: for `COc1ccc2c(c1)c(C(O)CN1CCOCC1)cn2S(=O)(=O)c1cccc2ccccc12` (centres unmarked) [4m, 1-(5-methoxy-1-(naphthalen-1-ylsulfonyl)-1H-indol-3-yl)-2-morpholinoethan-1-ol] the value was 190 to 192 °C; for `COc1ccc2c(c1)c(C(O)CN1CCN(c3ccccc3OC)CC1)cn2S(=O)(=O)c1ccc(I)cc1` (centres unmarked) [4j, 1-(1-((4-iodophenyl)sulfonyl)-5-methoxy-1H-indol-3-yl)-2-(4-(2-methoxyphenyl)piperazin-1-yl)ethan-1-ol], 101 to 104 °C.
The same measure, in the same setting: for `COc1ccccc1N1CCN(CC(O)c2cn(S(=O)(=O)c3ccc(I)cc3)c3ccc(F)cc23)CC1` (centres unmarked) [4a, 1-(5-fluoro-1-((4-iodophenyl)sulfonyl)-1H-indol-3-yl)-2-(4-(2-methoxyphenyl)piperazin-1-yl) ethan-1-ol] the value was 94.5 to 96.4 °C; for `O=S(=O)(c1cccc2ccccc12)n1cc(C(O)CN2CCN(c3ncccn3)CC2)c2cc(F)ccc21` (centres unmarked) [4g, 1-(5-fluoro-1-(naphthalen-1-ylsulfonyl)-1H-indol-3-yl)-2-(4-(pyrimidin-2-yl)piperazin-1-yl)ethan-1-ol], 100 to 103 °C; for `O=S(=O)(c1ccc(I)cc1)n1cc(C(O)CN2CCN(c3ccccn3)CC2)c2cc(F)ccc21` (centres unmarked) [4b, 1-(5-fluoro-1-((4-iodophenyl)sulfonyl)-1H-indol-3-yl)-2-(4-(pyridin-2-yl)piperazin-1-yl)ethan-1-ol], 135 to 137 °C.
Same read-out and setting: for `O=S(=O)(c1cccc2ccccc12)n1cc(C(O)CN2CCN(c3ccccn3)CC2)c2cc(F)ccc21` (centres unmarked) [4e, 1-(5-fluoro-1-(naphthalen-1-ylsulfonyl)-1H-indol-3-yl)-2-(4-(pyridin-2-yl)piperazin-1-yl)ethan-1-ol] the value was 112 to 114 °C; for `COc1ccc2c(c1)c(C(O)CN1CCOCC1)cn2S(=O)(=O)c1ccc(I)cc1` (centres unmarked) [4k, 1-(1-((4-iodophenyl)sulfonyl)-5-methoxy-1H-indol-3-yl)-2-morpholinoethan-1-ol], 120 to 124 °C.
For the compound `COc1ccc2c(c1)c(CCN(C)C)cn2S(=O)(=O)c1ccccc1` [MS-245], the inhibitory constant (Ki) at 5-HT6 receptor was 2.3 nM.

Usually melting point stands for the temperature, or range, at which the solid turns liquid. Broadly, the Ki is the dissociation constant of the complex between target and ligand, obtained from inhibition or displacement.

Values taken from PMC8227400, “Novel N-Arylsulfonylindoles Targeted as Ligands of the 5-HT6 Receptor. Insights on the Influence of C-5 Substitution on Ligand Affinity” (Pharmaceuticals, 2021).
